Tests used:
[1] = target: T1, D5 (Homo sapiens, UniProt P21918); assay: D5 cAMP assay; conditions: fold change of dopamine EC50, 50 μM compound
Method: cAMP Accumulation Assay. Assays were performed on D1R-HEK293 (Codex Biosolutions, Gaithersburg, Md.) cells stably expressing the human D1R. HEK293 cell lines were maintained in Dulbecco's modified Eagles medium, supplemented with 10% fetal bovine serum, 100 U/ml penicillin, 100 μg/ml streptomycin, 1 mM sodium pyruvate, and 250 μg/ml G418 and incubated at 37° C., 5% CO2, and 90% humidity. […] After 18-24 h incubation at 37° C., 5% CO2, and 90% humidity, the media was removed and replaced with 5 μL/well PBS. […] Briefly, antibody and working solution was added to each well according to the manufacturer's protocol, and incubated in the dark at room temperature for 60 min. Following incubation, enzyme acceptor reagent was added to the plates and luminescence (RLU) was measured (FDSS μCell, Hamamatsu Photonics K. K., Bridgewater, N.J.) following a 3 h incubation in the dark at room temperature.

[2] = target: T1, D5; assay: D5R β-arrestin recruitment assay (DiscoverX PathHunter, CHO cells); type: cell-based; set-up: host or cells: CHO-K1; conditions: for D5 Beta-Arrestin: DA + 50 μM PAM, Fold Change EC50: fold change of dopamine EC50, 50 μM compound; for Dopamine D5-β-arrestin Assay: DA + 50 μM PAM, Fold Change EC50: Table 6, 50 μM compound; for DA + 50 μM PAM, Fold Change EC50: fold change of DA EC50 with 50 μM PAM, Dopamine D5-β-arrestin Assay
Method: (§1) β-arrestin Recruitment Assay. […] Following 18-24 h of incubation, the cells were treated with the indicated concentrations of compound in PBS buffer containing 0.2 mM sodium metabisulfite, and incubated at 37° C. for 90 min. DiscoverX reagent was added to cells according to the manufacturer's protocol, followed by a 60 min incubation in the dark at room temperature. Luminescence was measured on a Hamamatsu FDSS μ-Cell reader (Hamamatsu, Bridgewater, N.J.) and data were collected using the FDSS software.
Each PAM was also examined in the absence of DA as an agonist, as indicated.

[3] = target: T2, D4R (Homo sapiens, UniProt P21917); assay: D4 β-arrestin recruitment assay (DiscoverX PathHunter, CHO-K1 cells); type: cell-based; set-up: inferred from the same PathHunter system described for D1R and D5R; host or cells: CHO-K1; conditions: for D4 Beta-Arrestin: DA + 50 μM PAM, Fold Change EC50: fold change of dopamine EC50, 50 μM compound; for Dopamine D4-β-arrestin Assay: DA + 50 μM PAM, Fold Change EC50: Table 7, 50 μM compound; for DA + 50 μM PAM, Fold Change EC50: fold change of DA EC50 with 50 μM PAM, Dopamine D4-β-arrestin Assay
T2 sequence (P21917 1-419): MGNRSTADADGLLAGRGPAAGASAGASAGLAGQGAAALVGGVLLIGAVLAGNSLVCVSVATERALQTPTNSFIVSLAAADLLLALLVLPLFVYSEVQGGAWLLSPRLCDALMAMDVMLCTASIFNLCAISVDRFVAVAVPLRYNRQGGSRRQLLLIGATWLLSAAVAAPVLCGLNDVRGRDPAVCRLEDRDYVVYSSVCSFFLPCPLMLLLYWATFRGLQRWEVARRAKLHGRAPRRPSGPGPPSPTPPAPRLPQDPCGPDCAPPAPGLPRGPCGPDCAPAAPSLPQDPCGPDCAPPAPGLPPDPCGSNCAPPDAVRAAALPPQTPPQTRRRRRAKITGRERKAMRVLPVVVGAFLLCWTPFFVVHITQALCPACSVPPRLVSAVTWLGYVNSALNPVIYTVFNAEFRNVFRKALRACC
Method: as §1, with “Assay. Agonist-mediated recruitment of β-arrestin-2 to all five DARs was determined using the DiscoveRx PathHunter complementation assay (DiscoverX Inc, Fremont, Calif.), as previously described (Free, et. al., 2014; Conroy, et. al., 2015).” for “Assay.”

[4] = target: human D1R (Homo sapiens, UniProt P21728); assay: D1R β-arrestin recruitment assay (DiscoverX PathHunter, CHO-K1 cells); conditions: for Dopamine D1-β-arrestin Assay: DA + 50 μM PAM, Fold Change EC50: Table 5, 50 μM compound; for DA + 50 μM PAM, Fold Change EC50: fold change of DA EC50 with 50 μM PAM, Dopamine D1-β-arrestin Assay
Chain of human D1R (P21728 whole entry): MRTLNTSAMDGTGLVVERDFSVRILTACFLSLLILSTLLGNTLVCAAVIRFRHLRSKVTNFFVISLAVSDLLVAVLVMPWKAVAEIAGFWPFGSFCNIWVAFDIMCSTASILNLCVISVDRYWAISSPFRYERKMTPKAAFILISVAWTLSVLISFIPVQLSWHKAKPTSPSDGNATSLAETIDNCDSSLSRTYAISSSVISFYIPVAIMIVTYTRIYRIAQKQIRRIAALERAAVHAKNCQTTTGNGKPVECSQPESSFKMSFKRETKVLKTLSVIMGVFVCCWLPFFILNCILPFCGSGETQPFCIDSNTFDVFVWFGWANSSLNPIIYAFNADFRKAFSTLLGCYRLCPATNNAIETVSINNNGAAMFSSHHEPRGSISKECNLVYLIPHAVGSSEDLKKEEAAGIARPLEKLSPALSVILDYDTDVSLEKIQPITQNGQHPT
Text: The DiscoverX PathHunter β-Arrestin Assay was used to measure β-arrestin reuitment to the D1R following the manufacturer's instructions.

T1 sequence (P21918 whole entry): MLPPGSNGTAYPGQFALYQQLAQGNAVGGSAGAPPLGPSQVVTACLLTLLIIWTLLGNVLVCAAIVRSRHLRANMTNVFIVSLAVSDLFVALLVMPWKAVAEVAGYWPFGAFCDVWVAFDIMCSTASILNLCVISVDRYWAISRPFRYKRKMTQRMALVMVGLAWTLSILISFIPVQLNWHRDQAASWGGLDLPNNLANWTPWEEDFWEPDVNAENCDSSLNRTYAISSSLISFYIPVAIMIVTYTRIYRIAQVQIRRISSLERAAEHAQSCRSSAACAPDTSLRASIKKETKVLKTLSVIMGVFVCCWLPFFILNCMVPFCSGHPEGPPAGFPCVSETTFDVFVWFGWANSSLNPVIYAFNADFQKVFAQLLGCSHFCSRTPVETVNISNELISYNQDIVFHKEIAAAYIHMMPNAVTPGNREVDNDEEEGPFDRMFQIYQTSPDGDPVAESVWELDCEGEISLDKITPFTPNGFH

Row | SMILES | Dopamine D5-β-arrestin Assay: DA + 50 μM PAM, Fold Change EC50 [2] | Dopamine D1-β-arrestin Assay: DA + 50 μM PAM, Fold Change EC50 [4] | Dopamine D4-β-arrestin Assay: DA + 50 μM PAM, Fold Change EC50 [3] | further results
1 | COc1ccc(-n2c(CC3CCCCC3)nc3c(c(=O)c4ccccc4n3C)c2=O)cc1Cl [Compound 19] | – | – | – | D5 cAMP: DA + 50 μM PAM, Fold Change EC50 [1]: 1.04; D5 Beta-Arrestin: DA + 50 μM PAM, Fold Change EC50 [2]: 1.29; D4 Beta-Arrestin: DA + 50 μM PAM, Fold Change EC50 [3]: 1.78
2 | Cn1c2ccccc2c(=O)c2c(=O)n(-c3ccc(Cl)cc3)c(CC3CCCCC3)nc21 [Compound 25] | – | – | – | D5 Beta-Arrestin: DA + 50 μM PAM, Fold Change EC50 [2]: 2.25; D4 Beta-Arrestin: DA + 50 μM PAM, Fold Change EC50 [3]: 0.77
3 | Cc1ccc(-n2c(CC3CCCCC3)nc3c(c(=O)c4ccccc4n3C)c2=O)cc1 [Compound 26] | – | – | – | D5 Beta-Arrestin: DA + 50 μM PAM, Fold Change EC50 [2]: 1.15; D4 Beta-Arrestin: DA + 50 μM PAM, Fold Change EC50 [3]: 1.40
4 | COc1ccc(-n2c(C3CCCCC3)nc3c(c(=O)c4ccccc4n3C)c2=O)cc1 [Compound 27] | – | – | – | D5 Beta-Arrestin: DA + 50 μM PAM, Fold Change EC50 [2]: 3.35; D4 Beta-Arrestin: DA + 50 μM PAM, Fold Change EC50 [3]: 1.19
5 | CC(C)c1nc2c(c(=O)c3ccccc3n2C)c(=O)n1-c1ccc(F)cc1 [R1=4-FPh, R2=i-Propyl, R3=H, X=NMe] | 2.44 | 1.69 | 1.76 | –
6 | Cn1c2ccccc2c(=O)c2c(=O)n(Cc3ccccc3)c(-c3ccc(F)cc3)nc21 [R1=Bn, R2=4-FPh, R3=H, X=NMe] | 6.74 | 1.32 | 1.24 | –
7 | CCCCCc1nc2c(c(=O)c3ccccc3n2C)c(=O)n1C1CCCCCC1 [R1=Cycloheptyl, R2=n-Pentyl, R3=H, X=NMe] | 3.89 | 1.12 | 1.46 | –
8 | CCCc1nc2c(c(=O)c3ccccc3n2C)c(=O)n1C1CCCCCC1 [R1=Cycloheptyl, R2=n-Propyl, R3=H, X=NMe] | 7.78 | 3.47 | 0.8 | –
9 | COc1ccc2c(=O)c3c(=O)n(-c4ccccc4)c(-c4ccc(C)cc4)nc3oc2c1 [R1=Ph, R2=4-MePh, R3=MeO, X=O] | 4.94 | 0.85 | 0.99 | –
10 | CC(C)Cn1c(-c2ccco2)nc2c(c(=O)c3ccccc3n2C)c1=O [R1=i-Bu, R2=2-furyl, R3=H, X=NMe] | 17.2 | 2.06 | 1.7 | –
11 | CC(C)(C)C1CCc2c(sc(NC(=O)c3ccco3)c2C(N)=O)C1 (stereo not drawn) [R4=NH2; R5=NHCO-2-furanyl; R6=t-Bu] | – | – | – | DA + 50 μM PAM, Fold Change EC50 [2]: 1.14; DA + 50 μM PAM, Fold Change EC50 [4]: 2.19; DA + 50 μM PAM, Fold Change EC50 [3]: 1.17
12 | NC(=O)c1c(NC(=O)c2cccnc2)sc2c1CCCC2 [R4=NH2; R5=NHCO-3-pyridyl; R6=H] | – | – | – | DA + 50 μM PAM, Fold Change EC50 [2]: 1.03; DA + 50 μM PAM, Fold Change EC50 [4]: 1.88; DA + 50 μM PAM, Fold Change EC50 [3]: 1.21
13 | CC1CCc2c(sc(NC(=O)c3ccc(O)cc3)c2C(N)=O)C1 (stereo not drawn) [R4=NH2; R5=NHCO-4-HOPh; R6=Me] | – | – | – | DA + 50 μM PAM, Fold Change EC50 [2]: 0.87; DA + 50 μM PAM, Fold Change EC50 [4]: 1.76; DA + 50 μM PAM, Fold Change EC50 [3]: 1.2
14 | Cc1ccccc1NC(=O)c1c(NC(=O)c2ccncc2)sc2c1CCC(C)C2 (stereo not drawn) [R4=NH-2-MePH; R5=NHCO-4-pyridyl; R6=Me] | – | – | – | DA + 50 μM PAM, Fold Change EC50 [3]: 1.09
15 | Cc1ccccc1NC(=O)c1c(NC(=O)c2ccncc2)sc2c1CCC(C)C2 (stereo not drawn) [R4=NH-2-MePh; R5=NHCO-4-pyridyl; R6=Me] | – | – | – | DA + 50 μM PAM, Fold Change EC50 [2]: 0.83; DA + 50 μM PAM, Fold Change EC50 [4]: 2.09

Now from value to molecule, other results behind:

Row | Dopamine D5-β-arrestin Assay: DA + 50 μM PAM, Fold Change EC50 [2] | Dopamine D1-β-arrestin Assay: DA + 50 μM PAM, Fold Change EC50 [4] | Dopamine D4-β-arrestin Assay: DA + 50 μM PAM, Fold Change EC50 [3] | SMILES | further results
16 | 3.81 | 14.1 | 0.95 | CCCc1nc2c(c(=O)c3ccccc3n2C)c(=O)n1-c1cc(C)cc(C)c1 [R1=3,5-diMePh, R2=n-Propyl, R3=H, X=NMe] | –
17 | 35.49 | 1.33 | 0.8 | Cn1c2ccccc2c(=O)c2c(=O)n(-c3ccccc3)c(-c3ccc(C(C)(C)C)cc3)nc21 [R1=Ph, R2=4-t-BuPh, R3=H, X=NMe] | –

Source: patent publication US20210040074A1 (The United States of America,as represented by the …, priority 2018, published 2021)
